Experimental data as given in US5321130A, “Unsymmetrical cyanine dyes with a cationic side chain” (priority 1992, dated 1994).

Legend:
[1] = Absorption spectra of free dye in methanol or pH 7.4 buffer; type: physicochemical; details: no DNA
Method: (§1) The strength of absorption and/or fluorescence is indicated by the extinction coefficient. The maximum extinction coefficient (εmax) for the unbound dyes is calculated from the longest wavelength absorption maximum according to the Beer-Lambert law based on the known concentration of the solutions. The extinction coefficient for the dye bound to DNA is calculated from the change in maximum absorbance compared to the dye in free aqueous solution. Typically the extinction coefficient for both bound and unbound dyes is between about 50,000 M^-1 cm^-1 and about 150,000 M^-1 cm^-1.
(§2) Solutions of Compounds 1-8 are prepared by accurately weighing 5 mg quantities and dissolving in DMSO (dimethylsulfoxide) to give a 1 mg/ml stock solution. These solutions are diluted 200 fold into either methanol or a pH 7.4 buffer solution comprising 10 mM Tris, 1 mM EDTA and 50 mM NaCl. Each absorption spectrum is recorded on an IBM Instruments 9420 spectrophotometer. The absorption maximum for each dye without the presence of nucleic acid polymers (λA) is tabulated (Table 2). To the solutions of Compounds 1-8 in pH 7.4 buffer is added sufficient calf thymus DNA (Sigma Chemical Co. D-1501) stock solution calculated to yield a ratio of 50 DNA base pairs per dye molecule or greater. The absorption maximum for each dye bound to DNA is again tabulated (Table 2). […] Where the spectra are not rescaled, the changes in extinction coefficient and absorption wavelength range accompanying binding to DNA are clearly illustrated (FIG. 2).

[2] = system: calf thymus DNA; assay: Absorption spectra of dye bound to calf thymus DNA; type: binding; details: pH 7.4 + DNA, ratio of 50 DNA base pairs per dye molecule or greater
Method: Absorption spectra of solutions of Compounds 1-8 (4 μM) in pH 7.4 buffer (10 mM Tris, 1 mM EDTA and 50 mM NaCl) are recorded on a Perkin-Elmer Lambda 6 spectrophotometer after the addition of sufficient calf thymus DNA (Sigma Chemical Co. D-1501) to yield a ratio of 50 DNA base pairs per dye molecule or greater. The spectra are normalized to a maximum absorbance of 1.0 by numerical rescaling.
The absorption spectrum of Compound 4 in buffer, prepared as for FIG. 1, is recorded on a Perkin-Elmer Lambda 6 spectrophotometer before and after addition of calf thymus DNA. The spectra are not rescaled, illustrating the changes in extinction coefficient and absorption wavelength range accompanying binding to DNA.
as §1, §2

[3] = system: calf thymus DNA; assay: Fluorescence emission spectra and enhancement on binding to calf thymus DNA; details: 0.4 μM dye; for λF (fluorescence maximum), bound to DNA: pH 7.4 + DNA; for Enhancement (QY + DNA)/(QY - DNA): pH 7.4, DNA:fluorophore ratio of 50 bp:1 or greater
Method: Fluorescence emission spectra of solutions (0.4 μM) of Compounds 1-8 in pH 7.4 buffer (10 mM Tris, 1 mM EDTA and 50 mM NaCl), after sufficient calf thymus DNA (Sigma Chemical Co. D-1501) is added to yield a ratio of 50 DNA base pairs per dye molecule or greater, are recorded on an Alphascan spectrofluorometer (PTI Inc.) with excitation at approximately (λA -25 nm) where λA is the absorption maximum of the dye bound to DNA (Table 2).
Solutions of each of Compounds 1-8 (0.4 μM) in pH 7.4 buffer (10 mM Tris, 1 mM EDTA and 50 mM NaCl) are prepared as above. Fluorescence emission spectra are recorded on an Alphascan spectrofluorometer (PTI Inc.) with excitation at approximately (λA -25 nm) where λA is the absorption maximum of the dye bound to DNA. After sufficient calf thymus DNA (Sigma Chemical Co. D-1501) is added to yield a ratio of 50 DNA base pairs per dye molecule or greater, fluorescence emission spectra are again recorded (Table 2). The spectra are integrated and enhancement ratio (Table 2) is calculated as follows: [formula] in which the ratio (A-)/(A+) is the ratio of the absorbances for the free and bound dye respectively at the excitation wavelength.

[4] = system: DNA of mouse fibroblast 3T3 cells; assay: Analysis of cellular DNA content (lysed 3T3 cells, fluorescence); type: cell-based
Method: Mouse fibroblast 3T3 cells aliquoted into microtiter plates are subjected to a freeze/thaw protocol to lyse cells and release DNA into solution. Compound 3 in TNE buffer is added to each well and the plates are scanned in a Cytofluor 2350 microtiter plate reader (Millipore Corp.) with excitation at 485 nm and emission detected at 530 nm. […] Treatment of half the wells with 20 μg/ml DNAse 1 for one hour at 37° C. in DNAse 1 buffer (10 mM MnCl2, 50 mM TRIS, pH 7.7) eliminates more than 95% of the fluorescence (filled circles).
The method of Rago et al. [Analytical Biochemistry 191, 31 (1990)] is adapted for use with the nucleotide-specific stain Compound 3. 3T3 cells (a mouse fibroblast cell line) are aliquoted into 96-well microtiter plates and allowed to adhere over a period of 4 hours. Cell numbers used are between 100 and 100,000 in 100 μl of Dulbecco's Modified Eagle Medium (DMEM). […]
For fluorescence analysis, 100 μl of distilled water is added to each well and the plates incubated at 37° C. for one hour, frozen at -80° C. then thawed to room temperature. […] 100 μl of 10 μM Compound 3 in TNE buffer (2 M NaCl, 10 mM TRIS, 1 mM EDTA pH 7.4) is added to each well and the plates scanned in a Cytofluor 2350 microtiter plate reader (Millipore Corp.) with excitation at 485 nm and emission detected at 530 nm. […]

[5] = system: calf thymus DNA; assay: Dye/nucleic acid affinity: partition coefficient Kp by fluorescence titration with DNA; type: binding
Method: The fluorescence intensity (F) determined in a fluorescence plate reader (CytoFluor from Millipore Corporation), is measured versus DNA concentration expressed in terms of base pairs concentration (B). […] In all the titrations, [Dye]/[Base Pair] is always […] than 3 to fulfill the requirements of the partition model.
The nucleic acid/water partition coefficient (Kp) representing the relative affinity of the dye for DNA is calculated from the fluorescence data according to the following formula:
1/F=[5.6·10^7 /(Kp Fo)](1/B)+1/Fo
where 5.6·10^7 (μM) is water molar concentration; B is the concentration of base pairs; and Fo is the fluorescence enhancement at saturation. Table 3 gives the Kp values of representative dyes via the partition model in the presence of 10% ethanol.

[6] = system: DNA or RNA; assay: Optical properties upon binding with DNA or RNA (general statements); details: binding to nucleic acid polymers
From the text: The enhanced fluorescence of the dyes in the bound versus unbound state is exemplified in Table 2. In particular, the absorption curve typically shifts to a longer wavelength. Typically, the absorption curve shift is between about 5 and about 20 nm. […] When combined with nucleic acid polymers, the novel dyes of this invention generally have a Stokes shift of between about 15 to about 30 nm. Table 2 includes the excitation and emission maxima (λA and λF respectively) for Compounds 1-8.
The fluorescence of the novel dyes bound to DNA or RNA is enhanced at least about 9 fold. Typically fluorescence is enhanced at least about 100 fold, sometimes as much as 1000 fold or more, depending on the amount and purity of the dye present in the sample (Table 2). This significant increase in fluorescence intensity reduces or eliminates the problem of background fluorescence due to unbound dye, thus avoiding the necessity to separate the unbound dye before measuring the fluorescence. Even where the dyes are intrinsically fairly fluorescent, however, such that the enhancement in fluorescence quantum yield which results from binding to nucleic acid polymers is less than 10 fold (e.g. Compound 5), the significant shift in absorption maxima that results from such binding (see Table 2, FIG. 2) can be used to quantitatively or qualitatively measure the presence of nucleic acid polymers.

Structure (SMILES)	εmax (extinction coefficient) ([1]; methanol)	λA (absorption maximum) ([1]; methanol) [nm]	εmax (extinction coefficient) ([1]; pH 7.4 buffer)	λA (absorption maximum) ([1]; pH 7.4 buffer) [nm]	εmax (extinction coefficient), bound to DNA [2]	λA (absorption maximum), bound to DNA [2] [nm]	λF (fluorescence maximum), bound to DNA [3] [nm]	Enhancement (QY + DNA)/(QY - DNA) [3] [x]	fluorescence eliminated by DNAse 1 treatment ([4]; 20 μg/ml DNAse 1, one hour, 37° C.)	fluorescence versus cell number ([4]; Ex 485 nm, Em 530 nm, TNE buffer)	effect of ethanol on DNA affinity (Kp) ([5]; 10% ethanol)	apparent affinity Kp, effect of dye concentration ([5]; binding buffer without ethanol, 0.1 vs 0.22 μM dye)	enhancement in fluorescence quantum yield on binding [6]
C[n+]1c(C=C2C=CN(CCC[N+](C)(C)C)C=C2)oc2ccccc21 [Compound 1]	77,500 M^-1 cm^-1	423	75,500 M^-1 cm^-1	423	50,100 M^-1 cm^-1	435	455	456					
C[n+]1c(C=C2C=CN(CCC[N+](C)(C)C)C=C2)sc2ccccc21 [Compound 2]	80,200 M^-1 cm^-1	452	76,200 M^-1 cm^-1	451	58,100 M^-1 cm^-1	462	481	892					
C[n+]1c(C=C2C=CN(CCC[N+](C)(C)C)c3ccccc32)oc2ccccc21 [Compound 3]	72,600 M^-1 cm^-1	482	66,000 M^-1 cm^-1	481	52,013 M^-1 cm^-1	491	509	925	more than 95%	linear increase of fluorescence with cell number			
C[n+]1c(C=C2C=CN(CCC[N+](C)(C)C)c3ccccc32)sc2ccccc21 [Compound 4]	73,800 M^-1 cm^-1	507	68,500 M^-1 cm^-1	506	62,800 M^-1 cm^-1	515	531	1806			ethanol decreases the DNA affinity	larger with 0.1 μM dye than with 0.22 μM	
C[n+]1c(C=CC=CC=C2C=CN(CCC[N+](C)(C)C)C=C2)oc2ccccc21 [Compound 5]		525		523		532	562	9					less than 10 fold
C[n+]1c(C=CC=CC=C2C=CN(CCC[N+](C)(C)C)C=C2)sc2ccccc21 [Compound 6]		564		560		575	599	29					
C[n+]1c(C=CC=C2C=CN(CCC[N+](C)(C)C)c3ccccc32)oc2ccccc21 [Compound 7]	133,100 M^-1 cm^-1	600	122,000 M^-1 cm^-1	596	100,100 M^-1 cm^-1	612	631	155					
C[n+]1c(C=CC=C2C=CN(CCC[N+](C)(C)C)c3ccccc32)sc2ccccc21 [Compound 8]	143,200 M^-1 cm^-1	635	98,200 M^-1 cm^-1	631	102,000 M^-1 cm^-1	642	661	80					
